In the assay the test system is ConA stimulated EOC20 microglia. The experiment in a line: F-actin staining and qPCR in ConA stimulated EOC20 microglia. The assay is classed as cell-based. On the procedure: To determine the immunomodulatory effect of A-O complex, serum starved macrophages were exposed to the complex. Macrophages (1×10^6 cells) were serum starved for 30 min after which cells were exposed to A-O complex. After 1 hour, cells were washed with 1×PBS (pH 7.4) and harvested using cell dissociation solution. Then the cells were suspended in ice cold staining buffer (100 μl) and centrifuged at 1000 rpm for 5 min at 4° C. The cells were resuspended in 100 μl ice cold staining buffer for 10 min at 2-8° C. and pellet resuspended in 50 μl staining media. To this 2 μl of Fc block or anti-mouse CD16/CD32 was added for 10 mins and washed with staining buffer. The cells were resuspended in 50 μl of staining buffer and incubated with fluorescent-tagged CD36 antibody (e-biosciences) for 25-30 min on ice. The excess stain was removed by washing and pelleting down using staining buffer thrice by spinning and removal of staining buffer. The cell suspension was fixed 1:1 ratio (staining buffer:fixative) and analysed within 48 h in ARIA3 DIVA software version 6.1. Further, expression of MHC-II, and CD-36, was also determined in the microglial cells via qPCR. For this RNA extraction was performed using RNA extraction kit from Qiagen according to the manufacturer's instruction. cDNA synthesis was performed using cDNA synthesis kit from Qiagen. To perform qPCR, 10 ng cDNA (per well) was amplified using the Light Cycler 480 Sybergreen I Master reagent (Roche Diagnostics, Indianapolis, Ind.) and primers (commercially purchased from SABiosciences, Qiagen) in the Light Cycler 480 (Roche Diagnostics, Switzerland) under following cycling conditions: 3 min at 95° C., 15 sec at 95° C., 20 sec at 60° C., 25 sec at 72° C. for 40 cycles. Following amplification, fold changes in gene expression versus β-actin (reference) analysis was determined using the 2^ΔΔCT(Livak) method.
To determine the immunomodulatory effect of A-O complex in microglia, EOC20 microglial cells from ATCC (CRL-2469) was employed. The cells were cultured in high glucose Dulbecco's […] Essential Media (DMEM) containing 4 mM L-glutamine, 10% fetal bovine serum (FBS) and 20% LADMAC conditioned media. LADMAC media was prepared by growing 80% confluent LADMAC cell line from ATCC (CRL-2420) in alpha-minimal essential media supplemented with 10% FBS for 5 days. The spent supernatant was centrifuged at 1000 rpm for 10 min and the supernatant was filtered as used as LADMAC media. To determine the morphological changes in microglia upon exposure to A-O complex, F-actin confocal microscopy was performed. […]
Next, immunomodulatory effect of A-O complex on activated microglial cells was determined. […] The immunomodulatory effect was assessed via F-actin staining and qPCR.

Where [1] appears, read: ConA stimulated microglia, qPCR.

Results on one substance are retold here after US11447534B2, “Peptide complex with immunodulatory and anti-inflammatory function” (NATIONAL INSTITUTE OF IMMUNOLOGY, priority 2018, dated 2022).

Regarding “A-O complex: peptide complex of 100 μM Abeta1-42 (SEQ ID NO: 1) and 3 ng Glu-OC (SEQ ID NO: 2), incubated at 37° C. for 4 hours”, under setting [1], the “mRNA level of Cd11b” value is recorded as “normalized”, the “mRNA level of Cd36” value is reported as “induced” and the “mRNA level of Tnfa” value was “normalized”. For the same substance, the “microglia morphology (F-actin)” value (EOC20 microglia, ConA 30 mins then A-O complex 1 hour) is “presence of cells with ramified process”.
